We go through five molecules from patent US11357817B2, “Immunoproteasome inhibitor” (The Regents of the University of California, priority 2017, dated 2022).

As usually defined, the IC50 is the point on the concentration scale where inhibition reaches its midpoint.

The target in one experiment is Pf20S (Plasmodium falciparum, UniProt A0A5K1K7U1+Q8IJT1). Put plainly: Calculation of inhibition constants (inactivation kinetics), Pf20S. It is filed as biochemical. The following applies: Pf20S. On the procedure:
(§1) The rate of AMC release was calculated in the presence of serial dilution of each inhibitor. The rate of product formation were calculated at 30 min intervals for 4 hours, and normalized to activity DMSO control to calculate inactivation curves. Kobs values for each inhibitor concentration were calculated from inactivation curves, and inhibition constants KI and kinact were calculated by non-linear regression of Kobs and inhibitor concentration using GraphPad Prism 6 software.

In a further experiment the test system is HepG2 cells. Put plainly: HepG2 cytotoxicity assay. It counts as cell-based. Particulars: Homo sapiens. On the procedure: The liver-stage and HepG2 toxicity assays were performed as previously reported (35). Briefly, HepG2-A16-CD81EGFP, human hepatocarcinoma HepG2 cells stably transformed to express the tetraspanin CD81 receptor (36, 37) and thus susceptible to P. berghei infection, were cultured at 37° C. in 5% CO2 in DMEM (Life Technologies, Calif.) supplemented with 10% FBS, 0.29 mg/ml glutamine, 100 unit penicillin and 100 μg/ml streptomycin. For both the P. berghei-luciferase and HepG2 cytotoxicity assays, 3×10^3 of the HepG2-A16-CD81EGFP cells in 5 μl of assay medium (DMEM without Phenol Red (Life Technologies, Calif.), 5% FBS, and 5× Pen Strep Glutamine (Life Technologies, Calif.)) at concentration 6×10^5 cells/ml were seeded in 1536-well plates (Greiner BioOne white solid bottom custom GNF mold) 20-26 hours prior to the actual infection. 18 hours prior to infection, 50 nl of compound in DMSO (0.5% final DMSO concentration per well) were transferred with Acoustic Transfer System (ATS) (Biosero) into the assay plates. Atovaquone (12-point serial dilution starting at 10 μM) and Puromycin (12-point serial dilution starting at 10 μM) were used as positive controls for Pb. liver stage assay and HepG2 cytotoxicity respectively. 0.5% DMSO was used as negative control for the both assays.
An. stephensi mosquitoes, infected with P. berghei-luciferase, were provided by the New York University Insectary. P. berghei-luciferase sporozoites were freshly dissected from the infected A. stephensi mosquito salivary glands, filtered twice through a 20 μm nylon net filter using Steriflip Vacuum-Driven Filtration System (Millipore), counted in a hemocytometer, and then adjusted to final concentration 200 sporozoites per μl in the assay media. […] The HepG2-A16-CD81EGFP cell designated for toxicity studies were left uninfected, with 5 ul of additional assay media added to each well to maintain equal concentrations of compounds with P. berghei-luciferase infected plates. After incubation at 37° C. for 48 hours the exoerythrocytic growth and HepG2-A16-CD81EGFP cell viability were quantified by a bioluminescence measurement.
The HepG2 cytotoxicity was assessed by removing the media through an inverted spin of the plates at 150 g for 30 s and addition of 2 μL of CellTiterGlo reagent (Promega diluted 1:2 with deionized water) per well using the MicroFlo liquid handler (BioTek). Immediately after addition of the luminescence reagent, the plates were vortexed for 10 s and read with an EnVision Multilabel reader (PerkinElmer). IC50 values were obtained as above.

For a further experiment, the system named is P. falciparum Dd2. Briefly: P. falciparum Dd2 asexual blood stage SYBR Green I compound sensitivity assay. It counts as cell-based, Plasmodium falciparum. Particulars: for IC50: Plasmodium falciparum, DD2, 72 h, asexual blood stage, 72 hour SYBR green assay; for Selectivity Index: P. falciparum activity versus HepG2 activity. The protocol: P. falciparum Dd2 strain parasites were cultured under standard conditions (31), using RPMI media supplemented with 0.05 mg/ml gentamycin, 0.014 mg/mL hypoxanthine (prepared fresh), 38.4 mM HEPES, 0.2% Sodium Bicarbonate, 3.4 mM Sodium Hydroxide, 0.05% O+ Human Serum (Denatured at […] for 40 min and From Interstate Blood Bank, Memphis, Tenn.) and 0.0025% Albumax). Human O+ whole blood was obtained from TSRI blood bank (La Jolla, Calif.). Leukocyte-free erythrocytes are stored at 50% hematocrit in RPMI-1640 screening media (as above, but without O+ human serum and with 2× albumax concentration) at 4° C. for one to three weeks before experimental use. Cultures were monitored every one to two days via Giemsa-stained thin smears.
(§2) Compound susceptibility was measured using the malaria SYBR Green I-based fluorescence assay (32). Asynchronous P. falciparum parasites (Dd2 strain) were cultured in standard conditions before being plated for the assays. Each compound was tested over 72 hours in technical duplicates on a twelve-point concentration curve prepared by three-fold dilution from 6.7 μM to 0.11 nM. At least three independent experiments were carried out for IC50 determination. Artemisinin and chloroquine were used as controls. IC50 values were obtained using normalized fluorescence intensity from SYBR green I and analyzed via non-linear variable slope four-parameter regression curve-fitting model in Prism 6 (GraphPad Software Inc).

The target of the next experiment is T1, c20S (Homo sapiens, UniProt P20618+P28074).
T1 construct: purchased Boston Biochem
Briefly: Calculation of inhibition constants (inactivation kinetics), c20S. It is filed as biochemical. The protocol:
as §1

The subject of another experiment is Dd2 parasites. Briefly: Artemisinin synergy, 72 hour SYBR green assay with co-treatment. It counts as cell-based, Plasmodium falciparum. Particulars: Plasmodium falciparum, DD2; wild-type parasites treated with ART alone. On the procedure:
as §2

Sequence of Pf20S (A0A5K1K7U1 entry or part of it): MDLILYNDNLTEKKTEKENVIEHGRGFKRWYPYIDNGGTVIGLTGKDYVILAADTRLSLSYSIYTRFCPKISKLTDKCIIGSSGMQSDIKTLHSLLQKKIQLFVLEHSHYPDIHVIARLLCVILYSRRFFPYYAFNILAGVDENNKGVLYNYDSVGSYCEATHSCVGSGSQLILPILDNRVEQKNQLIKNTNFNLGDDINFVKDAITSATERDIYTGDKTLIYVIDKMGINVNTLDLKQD
Sequence of Pf20S (Q8IJT1 entry or part of it): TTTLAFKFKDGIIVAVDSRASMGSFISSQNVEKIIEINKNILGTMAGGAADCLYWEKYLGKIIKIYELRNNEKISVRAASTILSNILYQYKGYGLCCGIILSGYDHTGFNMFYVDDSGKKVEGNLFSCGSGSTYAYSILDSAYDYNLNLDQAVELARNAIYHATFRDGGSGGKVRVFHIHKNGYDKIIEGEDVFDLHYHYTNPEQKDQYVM

On to `CCCCCC(=O)N[C@H](C(=O)N[C@@H](CCCC)C(=O)N[C@@H](CC(C)C)C(=O)[C@@]1(C)CO1)C(C)C` [Analog 1, (S)-2-((S)-2-hexanamido-3-methylbutanamido)-N—((S)-4-methyl-1-((R)-2-methyloxiran-2-yl)-1-oxopentan-2-yl)hexanamide], for which the Ki at Pf20S was 2290 nM; at c20S (c20S) it was 3740 nM. Moreover, the IC50 in the experiment with HepG2 cells stood at 134 ± 86.7 nM; with P. falciparum Dd2, 4.11 ± 0.077 nM. Besides, the “loss in potency to c20S” value at c20S (kinact/Ki, analog 1 versus carmaphycin B) is 3 fold.

For `CCCCCC(=O)N[C@@H](Cc1c[nH]c2ccccc12)C(=O)N[C@@H](Cc1c[nH]c2ccccc12)C(=O)N[C@@H](CC(C)C)C(=O)[C@@]1(C)CO1` [Analog 16, N—((S)-1-(((S)-3-(1H-indol-3-yl)-1-(((S)-4-methyl-1-((R)-2-methyloxiran-2-yl)-1-oxopentan-2-yl)amino)-1-oxopropan-2-yl)amino)-3-(1H-indol-3-yl)-1-oxopropan-2-yl)hexanamide], the IC50 in the experiment with HepG2 cells came to 11.7 ± 3.32 nM. Further, in the experiment on P. falciparum Dd2, the “Selectivity Index” value came out at 3.16 and inhibition was half-maximal at 3.7 ± 0.144 nM (IC50).

For `CCCCCC(=O)N[C@@H](Cc1c[nH]c2ccccc12)C(=O)N[C@@H](Cc1c[nH]c2ccccc12)C(=O)N[C@@H](Cc1ccccc1)C(=O)[C@@]1(C)CO1` [Analog 17, N—((S)-1-(((S)-3-(1H-indol-3-yl)-1-(((S)-1-((R)-2-methyloxiran-2-yl)-1-oxo-3-phenylpropan-2-yl)amino)-1-oxopropan-2-yl)amino)-3-(1H-indol-3-yl)-1-oxopropan-2-yl)hexanamide], half-maximal inhibition with HepG2 cells (IC50) was put at 346 ± 86.2 nM. In the experiment with P. falciparum Dd2, the “Selectivity Index” value is 36.89 and it took 9.38 ± 0.667 nM to reach half-maximal inhibition (IC50).

`CCCCCC(=O)N[C@H](Cc1c[nH]c2ccccc12)C(=O)N[C@@H](CCCC)C(=O)N[C@@H](CC(C)C)C(=O)[C@@]1(C)CO1` [Analog 19, (S)-2-((R)-2-hexanamido-3-(1H-indol-3-yl)propanamido)-N—((S)-4-methyl-1-((R)-2-methyloxiran-2-yl)-1-oxopentan-2-yl)hexanamide] returned an IC50 with HepG2 cells of 915 ± 289 nM. For the same molecule, the increase in selectivity in the experiment with P. falciparum Dd2 (D-amino acid at P3 in place of L-Val of analog 1, comparator not stated) is reported as 100 fold. Moreover, in the experiment with P. falciparum Dd2, the “Selectivity Index” value was 313.36 and the IC50 was found to be 2.92 ± 0.403 nM.

With `C[C@@H]1CC[C@H]2[C@@H](C)C(=O)O[C@@H]3O[C@@]4(C)CC[C@@H]1[C@]32OO4` [Artemisinin, artemisinin], the IC50 in the experiment on Dd2 parasites was in the range of 19.7 to 23.3 nM.
